US20090281054A1, “COMPOSITIONS AND METHODS COMPRISING CAPURAMYCIN ANALOGUES” (priority 2008, published 2009)
Converted amounts (≈) assume the structure as drawn. Where two headings read alike, the source gives them in different places.

How the values were obtained:
[1] = test system: MTB in macrophages; assay type: cell-based, Mycobacterium tuberculosis; details: INH 0.125 μg/ml; day 0 RLU 1397, Control day 7 9075
[2] = test system: MTB-pSMT1 luciferase reporter strain; assay: Activity against slowly replicating (hypoxic) MTB; assay type: cell-based; details: Mycobacterium tuberculosis
[3] = test system: M. smegmatis (MSMG; MC2155); assay: MIC by microdilution method in 7H9 broth; assay type: cell-based; details: Mycolicibacterium smegmatis, MC2155|MC^2155; MSMG MC^2155; 72 hr; read-out: MIC
[4] = test system: MTB-H37Rv; assay: Post-antibiotic effect (PAE); assay type: cell-based, Mycobacterium tuberculosis; details: 4 μg/ml, 2 hr of exposure
Description: PAE of SQ641. PAE of SQ641 was determined as described (Chan et al. Antimicrob. Agents Chemother., 2004, 48(1), 340-343). At the end of incubation, suspensions were diluted 1/25, and 0.1 ml was injected into each of triplicate BACTEC vials: drug dilution was 1000-fold in the BACTEC vials. Drug carryover controls (to ascertain absence of any carryover drug) consisting of the same MTB suspension as in the test and similar drug dilutions were mixed immediately, diluted 1/25, and 0.1 ml was injected into BACTEC vials. BACTEC vials were incubated at 37° C. and read in a BACTEC TB-460 reader every 24 hr until the cumulative GI in the control reached 999. PAE was calculated from the formula PAE=T−C, where T is the time required for the drug-exposed organisms to reach a cumulative GI of 100 and C is the time required for the controls to reach a cumulative GI of 100.
PAE determines the time required for the organisms to recover following exposure to an antimicrobial agent for a short duration. PAE activities of both SQ641 and INH, each at 4 μg/ml, were investigated with MTB-H37Rv. Following 2 hr of exposure to drugs, the PAE of INH was 17 hr as compared to 55 hr for SQ641. The PAE of SQ641 was over 3 times that of INH.

[5] = test system: M. abscessus (MAB; ATCC 700869); assay: MIC by microdilution method in 7H9 broth; assay type: cell-based; details: Mycobacteroides abscessus, ATCC700869; MAB 700869; read-out: MIC
[6] = test system: intracellular MTB (MTBp-SMT1) in J774A.1 macrophages; assay: Intracellular activity of SQ641-TPGS micelles; assay type: cell-based, Mycobacterium tuberculosis
[7] = test system: M. smegmatis; assay: Synergy by checkerboard titration (microdilution); assay type: cell-based; details: M. smegmatis
[8] = test system: MTB in J774 cells; assay: Intracellular activity of amino acid conjugates; assay type: cell-based, Mycobacterium tuberculosis; details: 0.125 μg/ml; day 0 RLU 775, Control day 7 31700
Description: The amino acid conjugates were tested at concentrations of 4 mg/mL and 8 mg/mL compared with a control and isoniazid (INH).
The intracellular activity against MTB by capuramycin amino acid derivatives was tested. Cells J774 were infected with MTB and treated for 7 days with the amino acid derivative. The mean Relative Light Unites (RLU), an estimation of bacterial viability, was measured as described in Snewin et al., Infect. Immun., 1999, 67(9), 4586-4593).

[9] = test system: MTB in J774A.1 cells; assay: Intracellular activity of SQ641 with efflux pump blockers; assay type: cell-based, Mycobacterium tuberculosis; details: INH 0.25 μg/ml
[10] = test system: M. kansaii (MKN; ATCC12478 & 35775); assay: MIC by microdilution method in 7H9 broth; assay type: cell-based, M. kansasii; details: Mycobacterium kansasii, read-out: MIC
[11] = test system: MTB; assay type: in vivo, mouse; details: PO, 25 mg/kg, 2 weeks treatment
[12] = test system: MTB inside macrophages; assay: Intracellular activity of DMSO-solubilized drug in MTB infected macrophages; assay type: cell-based, Mycobacterium tuberculosis; details: 0.25 μg/ml (2 X MIC); Day 0 RLU 443, Control Day 7 4251

## NNC(=O)c1ccncc1 [INH, isoniazid, reference compound]
[1]
  Mean RLU on day 7: 434 RLU
[2]
  MIC: 0.062 µg/mL (≈ 0.452 µM)
[2]; Hypoxic, […]
  MIC: 0.125 µg/mL (≈ 0.911 µM)
[3]
  MIC: 8 µg/mL (≈ 58.3 µM)
[4]
  PAE (post-antibiotic effect): 17 h
[5]
  MIC: > 32 µg/mL
[6]; Expt 1, one day drug exposure, 0.5 μg/ml, Day 0 RLU 104, CONTROL Day 7 906
  Mean RLU at Day 7: 8 RLU
[6]; Expt 2, four days drug exposure, 0.25 μg/ml, Day 0 RLU 205, CONTROL Day 7 491
  Mean RLU at Day 7: 1 RLU
[7]; combination SQ641 + INH
  MIC Combination: 1.0 µg/mL
[7]; Mycolicibacterium smegmatis, drug alone
  MIC: 8 µg/mL
[8]
  Mean RLU on day 7: 131 RLU
[9]; Table 13, Day 0 RLU 425, Control Day 7 6283
  Mean RLU at Day 7: 127 RLU
[9]; Table 14, Day 0 RLU 811, Control Day 7 3004
  Mean RLU at Day 7: 20 RLU
[10]; ATCC 12478 / ATCC 35775, MKN ATCC35775
  MIC: 1 µg/mL (≈ 7.29 µM)
[10]; MKN ATCC12478
  MIC: 2 µg/mL (≈ 14.6 µM)
[11]; Control 3.8 ± 1.9 × 10^8
  Lung CFU ± SD: 1.9 ± 0.8 × 10^7 CFU
[11]; Control 8.58
  Lung Log CFU: 7.28 Log CFU
[12]
  Mean RLU at Day 7: 11 RLU
